Source: PubChem BioAssay (NCI)
Where “and” joins values, the source holds several entries; their conditions need not be identical. Identical values can stand only once.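 1) Cells in 96-well plates. 2) Compound, 48 h, 5 concentrations. 3) Linear interpolation between surrounding doses. 4) Unreached endpoint = highest concentration. GI50 marks 50% less growth. The concentration for full growth arrest is given as TGI.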

What was measured:
Test in all cases: NCI tumour cell line growth inhibition, 48 h
[1] = system: P388/ADR leukemia
[2] = system: SNB-78 CNS
[3] = system: DMS 114 small cell lung
[4] = system: M19-MEL melanoma
[5] = system: DLD-1 colon
[6] = system: MDA-MB-435
[7] = system: MDA-N
[8] = system: T-47D breast
[9] = system: M14 melanoma
[10] = system: BT-549 breast
[11] = system: SR leukemia
[12] = system: PC-3 prostate
[13] = system: MDA-MB-231 breast
[14] = system: LXFL 529 NSCLC
[15] = system: 786-0 renal

Row | SMILES | TGI [2] [µM] | TGI [3] [µM] | TGI [4] [µM] | TGI [5] [µM] | TGI [6] [µM] | TGI [7] [µM] | TGI [8] | TGI [9] [µM] | TGI [10] [µM] | TGI [11] [µM] | TGI [12] [µM] | TGI [13] [µM] | TGI [15] [µM] | other results
1 | Nc1ncnc2c1ncn2C1OC(COP(=O)(O)O)C(O)C1O (stereo not given) | > 50 | > 50 | > 50 | > 31.6 |  |  |  |  |  |  |  |  |  | TGI [1]: > 50 µM
2 | COc1cc2c(cc1OC)-c1cc3ccccc3c[n+]1CC2 |  |  |  |  | > 100 | > 100 | > 100 µM | > 100 | > 100 | > 100 | > 100 | > 100 |  | 
3 | Cc1ccccc1C(=O)c1c(O)c2c(c(O)c1Br)CCCC2 | 47.5 | 27.5 | 29.4 | 58.9 |  |  |  | 29.1 |  | 44.5 |  |  | 27.9 | TGI [14]: 26.9 µM
4 | O=[N+]([O-])c1nc(-c2ccccn2)[nH]c1[N+](=O)[O-] | > 100 | 38.9 | > 100 | > 100 |  |  |  | > 100 |  | > 100 |  |  |  | TGI [14]: > 100 µM
5 | CCOc1ccc2nc(-c3ccc(O)cc3)sc2c1 |  |  |  |  | > 100 | > 100 |  | > 100 | > 100 |  | > 100 | > 100 |  | 
6 | C/C=C/[C@H]1O[C@@](O)([C@@H](C)[C@H](O)[C@H](C)[C@H]2OC(=O)/C(OC)=C/C(C)=C/[C@@H](C)[C@@H](O)[C@@H](CC)[C@@H](O)[C@H](C)C/C(C)=C/C=C/[C@@H]2OC)C[C@H](OC2CC(O)C(O)C(C)O2)[C@@H]1C (stereo not given in full) |  |  |  |  | 8.87 | 12.2 | 0.336 µM | < 0.0075 | 14.1 | 0.75 | 9.48 | 13.9 | 2.92 | 
7 | O=C(O)c1ccccc1NC(c1ccccc1)c1ccc2cccnc2c1O (stereo not given) |  |  |  |  | > 66.9 | > 100 | 39.4 µM | 38.8 | 45.1 | > 46.8 | > 88.8 | > 62.4 | 20.1 | 
8 | N/C(=N\N=C/c1ccccc1O)NO | > 96.6 | 30.7 | > 100 | > 45.6 |  |  |  |  |  |  |  |  |  | TGI [1]: 10.8 µM
9 | O=C1OC(c2ccccc2)=N/C1=C\c1cccnc1 |  |  |  |  | > 100 |  |  | > 100 | > 100 | > 100 | > 100 |  |  | 
10 | O=C(O)c1cc2ccccc2c(N=Nc2ccccc2)c1O |  |  |  |  | 35.5 | 58.4 | > 100 µM | 37.9 | 45.1 |  | 60.1 | > 100 | > 100 | 
11 | CC(=O)OC1C(C)OC(Oc2c(C)c3c4c(c2O)[C@@H](C)CC[C@@H]4[C@@H](C)C[C@H]3C=C(C)C)C(O)C1O (stereo not given in full) |  |  |  |  | 4.49 |  |  |  |  |  |  |  |  | GI50 [6]: 2.13 µM
12 | CC[C@]1(O)C[C@H]2CN(CCc3c([nH]c4ccccc34)[C@@](C(=O)OC)(c3cc4c(cc3OC)N(C=O)[C@H]3[C@@](O)(C(=O)OC)[C@H](OC(C)=O)[C@]5(CC)C=CCN6CC[C@]43[C@@H]65)C2)C1 | 109 | 0.56 | 169 | 144 |  |  | 399 µM and 171 µM |  |  |  |  |  |  | TGI [14]: 7.81 µM; TGI [1]: 35.5 µM; GI50 [6]: 0.0122 µM; GI50 [7]: < 0.001 µM; GI50 [8]: 112 µM; GI50 [11]: 0.00657 µM; GI50 [13]: 0.00138 µM
13 | CCS(=O)(=O)N1CCC(C(C)n2c(C)c(C(=O)NCc3c(OC)cc(C)[nH]c3=O)c3ccccc32)CC1 (stereo not given) |  |  |  |  | > 100 |  | > 100 µM |  |  |  |  |  |  | GI50 [6]: > 100 µM; GI50 [8]: > 100 µM
14 | COC1=C2CC(C)CC(OC)C(O)C(C)/C=C(\C)C(OC(N)=O)C(OC)/C=C\C=C(/C)C(=O)NC(=C(C=NC(C)(C)C)C1=O)C2=O (stereo not given) | 46.2 | 3.82 | 15.6 | 45.7 |  |  |  |  |  |  |  |  |  | TGI [1]: 62.5 µM
15 | NC(=O)c1nnc2ccc(F)cc2c1N |  |  |  |  | > 100 | > 100 | > 100 µM | > 100 | > 100 | > 100 | > 100 | > 100 | > 100 | 
16 | C/C(CC/C(C)=N/O)=N\O |  |  |  |  | > 100 | > 100 | > 100 µM | > 100 | > 100 |  | > 100 | > 100 | > 100 | 
